In patent publication US20220106296A1, “CYANOTRIAZOLE COMPOUNDS AND USES THEREOF” (Novartis AG, priority 2018, published 2022):

What follows are compounds tested on T. b. brucei Lister427 bloodstream form parasites (assay: T. b. brucei growth inhibition assay (CellTiter-Glo, 48 hours)). Details: Trypanosoma brucei.
Assay type: cell-based
Text: Bloodstream form of T. b. brucei Lister427 strain was obtained from the Genomics Institute of the Novartis Research Foundation. This strain was used for carrying out growth inhibition and kill kinetics assays. T. b. gambiense STIB930 and T. b. rhodesiense STIB900 were obtained from Swiss TPH, were used for carrying out the growth inhibition assays.
Bloodstream form T. b. brucei Lister 427 parasites were continuously passaged in HMI-9 medium formulated from IMDM medium (Invitrogen), 10% heat-inactivated fetal bovine serum (FBS), 10% Serum Plus medium supplement (SAFC Biosciences), 1 mM hypoxanthine (Sigma-Aldrich), 50 μM bathocuproine disulfonic acid (Sigma-Aldrich), 1.5 mM cysteine (Sigma-Aldrich), 1 mM pyruvic acid (Sigma-Aldrich), 39 μg/mL thymidine (Sigma-Aldrich), and 14 μL/L beta-mercapthoethanol (Sigma-Aldrich); all concentrations of added components refer to that in complete HMI-9 medium. The parasites were cultured in 10 mL of HMI-9 medium in T75 CELL-STAR tissue culture flasks at 37° C./5% CO2.
To determine compound growth inhibitory potency on T. b. brucei Lister427 bloodstream form parasites, 200 nL of 10-point, 3 fold serially diluted compounds in DMSO were transferred to the wells of white, solid bottom 384-well plates (Greiner Bio-One) by either Echo 555 acoustic liquid handling system or Mosquito. Then, 1×10^4 of T. b. brucei parasites in 40 μL of HMI-9 medium were added to each well, and the plates were incubated for 48 hours at 37° C. in 5% CO2 incubators. Parasite numbers in individual plate wells were determined through quantification of intracellular ATP amount. The CellTiter-Glo luminescent cell viability reagent (Promega) was added to plate wells, and ATP-dependent luminescence signal was measured on Tecan M1000 plate Reader after 30 min incubation. Luminescence values in wells with compounds were divided by the average luminescence value of the plate DMSO controls, and used for calculation of compound IC50 values.

Going from `N#Cc1ncn(CC(=O)N2Cc3ccc(-c4cc(F)ccc4C(F)(F)F)cc3C2)n1` [Example 28, 1-(2-(5-(5-fluoro-2-(trifluoromethyl)phenyl)isoindolin-2-yl)-2-oxoethyl)-1H-1,2,4-triazole-3-carbonitrile] to `N#Cc1ncn(CC(=O)N2Cc3ccc(-c4ccc(F)cc4F)cc3C2)n1` [Example 55, 1-(2-(5-(2,4-difluorophenyl)isoindolin-2-yl)-2-oxoethyl)-1H-1,2,4-triazole-3-carbonitrile], the IC50 rises from < 100 nM to ≥ 1000 nM. The first is the more potent here.

`N#Cc1ncn(CC(=O)N2Cc3ccc(-c4cccnc4Cl)cc3C2)n1` [Example 47, 1-(2-(5-(2-chloropyridin-3-yl)isoindolin-2-yl)-2-oxoethyl)-1H-1,2,4-triazole-3-carbonitrile] and `N#Cc1ncn(CC(=O)N2Cc3ccc(-c4cccnc4F)cc3C2)n1` [Example 73, 1-(2-(5-(2-fluoropyridin-3-yl)isoindolin-2-yl)-2-oxoethyl)-1H-1,2,4-triazole-3-carbonitrile] cannot be ordered by IC50: 100 to 1000 nM for the first, ≥ 1000 nM for the second.

`N#Cc1ncn(CC(=O)N2Cc3ccc(-c4ccncc4Cl)cc3C2)n1` [Example 49, 1-(2-(5-(3-chloropyridin-4-yl)isoindolin-2-yl)-2-oxoethyl)-1H-1,2,4-triazole-3-carbonitrile] and `N#Cc1ncn(CC(=O)N2Cc3ccc(-c4ccncc4F)cc3C2)n1` [Example 60, 1-(2-(5-(3-fluoropyridin-4-yl)isoindolin-2-yl)-2-oxoethyl)-1H-1,2,4-triazole-3-carbonitrile] cannot be ordered by IC50: 100 to 1000 nM for the first, ≥ 1000 nM for the second.

`COc1ccc(-c2ccc3c(c2)CN(C(=O)Cn2cnc(C#N)n2)C3)c(OC)c1` [Example 53, 1-(2-(5-(2,4-dimethoxyphenyl)isoindolin-2-yl)-2-oxoethyl)-1H-1,2,4-triazole-3-carbonitrile] and `COc1ccc(OC)c(-c2ccc3c(c2)CN(C(=O)Cn2cnc(C#N)n2)C3)c1` [Example 59, 1-(2-(5-(2,5-dimethoxyphenyl)isoindolin-2-yl)-2-oxoethyl)-1H-1,2,4-triazole-3-carbonitrile] cannot be ordered by IC50: ≥ 1000 nM for the first, ≥ 1000 nM for the second.

`N#Cc1cccc(-c2ccc3c(c2)CN(C(=O)Cn2cnc(C#N)n2)C3)c1` [Example 54, 1-(2-(5-(3-cyanophenyl)isoindolin-2-yl)-2-oxoethyl)-1H-1,2,4-triazole-3-carbonitrile] and `N#Cc1ncn(CC(=O)N2Cc3ccc(-c4cccc(Cl)c4)cc3C2)n1` [Example 80, 1-(2-(5-(3-chlorophenyl)isoindolin-2-yl)-2-oxoethyl)-1H-1,2,4-triazole-3-carbonitrile] cannot be ordered by IC50: ≥ 1000 nM for the first, ≥ 1000 nM for the second.

`N#Cc1ncn(CC(=O)N2Cc3ccc(-c4ccc(F)nc4)cc3C2)n1` [Example 56, 1-(2-(5-(6-fluoropyridin-3-yl)isoindolin-2-yl)-2-oxoethyl)-1H-1,2,4-triazole-3-carbonitrile] and `N#Cc1ncn(CC(=O)N2Cc3ccc(-c4ccnc(F)c4)cc3C2)n1` [Example 63, 1-(2-(5-(2-fluoropyridin-4-yl)isoindolin-2-yl)-2-oxoethyl)-1H-1,2,4-triazole-3-carbonitrile] cannot be ordered by IC50: ≥ 1000 nM for the first, ≥ 1000 nM for the second.

`COc1ccc(F)cc1-c1ccc2c(c1)CN(C(=O)Cn1cnc(C#N)n1)C2` [Example 57, 1-(2-(5-(5-fluoro-2-methoxyphenyl)isoindolin-2-yl)-2-oxoethyl)-1H-1,2,4-triazole-3-carbonitrile] and `COc1ccccc1-c1ccc2c(c1)CN(C(=O)Cn1cnc(C#N)n1)C2` [Example 75, 1-(2-(5-(2-methoxyphenyl)isoindolin-2-yl)-2-oxoethyl)-1H-1,2,4-triazole-3-carbonitrile] cannot be ordered by IC50: ≥ 1000 nM for the first, ≥ 1000 nM for the second.

`N#Cc1ncn(CC(=O)N2Cc3ccc(-c4ccc(Cl)cc4F)cc3C2)n1` [Example 58, 1-(2-(5-(4-chloro-2-fluorophenyl)isoindolin-2-yl)-2-oxoethyl)-1H-1,2,4-triazole-3-carbonitrile] and `N#Cc1ncn(CC(=O)N2Cc3ccc(-c4ccc(F)c(Cl)c4)cc3C2)n1` [Example 68, 1-(2-(5-(3-chloro-4-fluorophenyl)isoindolin-2-yl)-2-oxoethyl)-1H-1,2,4-triazole-3-carbonitrile] cannot be ordered by IC50: ≥ 1000 nM for the first, ≥ 1000 nM for the second.

`COc1ccc(-c2ccc3c(c2)CN(C(=O)Cn2cnc(C#N)n2)C3)cc1` [Example 61, 1-(2-(5-(4-methoxyphenyl)isoindolin-2-yl)-2-oxoethyl)-1H-1,2,4-triazole-3-carbonitrile] and `N#Cc1ncn(CC(=O)N2Cc3ccc(-c4ccc(Br)cc4)cc3C2)n1` [Example 67, 1-(2-(5-(4-bromophenyl)isoindolin-2-yl)-2-oxoethyl)-1H-1,2,4-triazole-3-carbonitrile] cannot be ordered by IC50: ≥ 1000 nM for the first, ≥ 1000 nM for the second.

`COc1ccc(OC(F)(F)F)cc1-c1ccc2c(c1)CN(C(=O)Cn1cnc(C#N)n1)C2` [Example 62, 1-(2-(5-(2-methoxy-5-(trifluoromethoxy)phenyl)isoindolin-2-yl)-2-oxoethyl)-1H-1,2,4-triazole-3-carbonitrile] and `N#Cc1ncn(CC(=O)N2Cc3ccc(-c4ccc(OC(F)(F)F)cc4)cc3C2)n1` [Example 83, 1-(2-oxo-2-(5-(4-(trifluoromethoxy)phenyl)isoindolin-2-yl)ethyl)-1H-1,2,4-triazole-3-carbonitrile] cannot be ordered by IC50: ≥ 1000 nM for the first, ≥ 1000 nM for the second.

`C#Cc1ccc(-c2ccc3c(c2)CN(C(=O)Cn2cnc(C#N)n2)C3)cc1` [Example 64, 1-(2-(5-(4-ethynylphenyl)isoindolin-2-yl)-2-oxoethyl)-1H-1,2,4-triazole-3-carbonitrile] and `N#Cc1ncn(CC(=O)N2Cc3ccc(-c4ccc(Cl)cc4)cc3C2)n1` [Example 71, 1-(2-(5-(4-chlorophenyl)isoindolin-2-yl)-2-oxoethyl)-1H-1,2,4-triazole-3-carbonitrile] cannot be ordered by IC50: ≥ 1000 nM for the first, ≥ 1000 nM for the second.

`N#Cc1ncn(CC(=O)N2Cc3ccc(-c4ccccc4F)cc3C2)n1` [Example 65, 1-(2-(5-(2-fluorophenyl)isoindolin-2-yl)-2-oxoethyl)-1H-1,2,4-triazole-3-carbonitrile] and `N#Cc1ncn(CC(=O)N2Cc3ccc(-c4ccccc4)cc3C2)n1` [Example 79, 1-(2-oxo-2-(5-phenylisoindolin-2-yl)ethyl)-1H-1,2,4-triazole-3-carbonitrile] cannot be ordered by IC50: ≥ 1000 nM for the first, ≥ 1000 nM for the second.

`N#Cc1ncn(CC(=O)N2Cc3ccc(-c4ccncc4)cc3C2)n1` [Example 66, 1-(2-oxo-2-(5-(pyridin-4-yl)isoindolin-2-yl)ethyl)-1H-1,2,4-triazole-3-carbonitrile] and `N#Cc1ncn(CC(=O)N2Cc3ccc(-c4ccc(F)cc4)cc3C2)n1` [Example 82, 1-(2-(5-(4-fluorophenyl)isoindolin-2-yl)-2-oxoethyl)-1H-1,2,4-triazole-3-carbonitrile] cannot be ordered by IC50: ≥ 1000 nM for the first, ≥ 1000 nM for the second.

`N#Cc1ncn(CC(=O)N2Cc3ccc(-c4ccccc4-c4ccccc4)cc3C2)n1` [Example 69, 1-(2-(5-([1,1′-biphenyl]-2-yl)isoindolin-2-yl)-2-oxoethyl)-1H-1,2,4-triazole-3-carbonitrile] and `N#Cc1ncn(CC(=O)N2Cc3ccc(-c4cccc(F)c4)cc3C2)n1` [Example 81, 1-(2-(5-(3-fluorophenyl)isoindolin-2-yl)-2-oxoethyl)-1H-1,2,4-triazole-3-carbonitrile] cannot be ordered by IC50: ≥ 1000 nM for the first, ≥ 1000 nM for the second.

`N#Cc1ncn(CC(=O)N2Cc3ccc(-c4ccc(Cl)c(F)c4)cc3C2)n1` [Example 70, 1-(2-(5-(4-chloro-3-fluorophenyl)isoindolin-2-yl)-2-oxoethyl)-1H-1,2,4-triazole-3-carbonitrile] and `N#Cc1ncn(CC(=O)N2Cc3ccc(-c4ccc(F)c(F)c4)cc3C2)n1` [Example 72, 1-(2-(5-(3,4-difluorophenyl)isoindolin-2-yl)-2-oxoethyl)-1H-1,2,4-triazole-3-carbonitrile] cannot be ordered by IC50: ≥ 1000 nM for the first, ≥ 1000 nM for the second.

`N#Cc1ncn(CC(=O)N2Cc3ccc(-c4cc(F)cc(F)c4)cc3C2)n1` [Example 74, 1-(2-(5-(3,5-difluorophenyl)isoindolin-2-yl)-2-oxoethyl)-1H-1,2,4-triazole-3-carbonitrile] and `Cc1cc(-c2ccc3c(c2)CN(C(=O)Cn2cnc(C#N)n2)C3)ccc1C(F)(F)F` [Example 78, 1-(2-(5-(3-methyl-4-(trifluoromethyl)phenyl)isoindolin-2-yl)-2-oxoethyl)-1H-1,2,4-triazole-3-carbonitrile] cannot be ordered by IC50: ≥ 1000 nM for the first, ≥ 1000 nM for the second.

`N#Cc1ncn(CC(=O)N2Cc3ccc(-c4ccc(C(F)(F)F)cc4)cc3C2)n1` [Example 76, 1-(2-oxo-2-(5-(4-(trifluoromethyl)phenyl)isoindolin-2-yl)ethyl)-1H-1,2,4-triazole-3-carbonitrile] and `COc1cccc(-c2ccc3c(c2)CN(C(=O)Cn2cnc(C#N)n2)C3)c1` [Example 77, 1-(2-(5-(3-methoxyphenyl)isoindolin-2-yl)-2-oxoethyl)-1H-1,2,4-triazole-3-carbonitrile] cannot be ordered by IC50: ≥ 1000 nM for the first, ≥ 1000 nM for the second.
